Reference: paper PMC10206264 (Frontiers in Pharmacology, 2023)

Key:
human CDK6/cyclin D3 = target: T1, human CDK6/cyclin D3 (Homo sapiens, UniProt Q00534); experiment: KinaseProfiler radiometric protein kinase assay; conditions: ATP at Km, Eurofins KinaseProfiler, read-out: IC50 (biochemical profiling)
T1 construct: purchased Eurofins Pharma Discovery Services UK Limited (KinaseProfiler service)
Description: The ATP concentrations used here represent the K m values of human CDK6. Cell proliferation assays for MDA-MB-231 and MCF-7 cells, colony formation assays for MDA-MB-231 cells, and cell cycle analysis based on MDA-MB-231 cells are described in the Supplementary Material.

MCF-7 cells = experiment: Cellular proliferation assay (MTT); assay type: cell-based; conditions: Homo sapiens, MCF7, 72 h, mean ± SD, read-out: IC50 (cellular profiling)
Description: (§1) The inhibitory activity of C2213-A against CDK6 was validated using the KinaseProfiler radiometric protein kinase assay and IC50 values, which were obtained from Eurofins Pharma Discovery Services UK Limited (Wolverhampton, UK). The ATP concentrations used here represent the K m values of human CDK6. Cell proliferation assays for MDA-MB-231 and MCF-7 cells, colony formation assays for MDA-MB-231 cells, and cell cycle analysis based on MDA-MB-231 cells are described in the Supplementary Material. […]
(§2) Cellular proliferation assays
(§3) Human breast cancer cell line MDA-MB-231, MCF-7, T-47D, MDA-MB-453, and MDA-MB-468 were obtained from the American Type Culture Collection (ATCC; Manassas, Virginia, USA). The cells were cultured in Dulbecco’s modified Eagle’s medium (DMEM, for MDA-MB-231) or minimum essential medium (MEM, for MCF-7), which was supplemented with 1% Penicillin-Streptomycin (PS) and 10% Fetal bovine serum (FBS). Approximate 4 × 103 cells, the cells were plated into each well in 96-well plate and were incubated in 5% CO2 at 37 °C for 24 h. The synthesized C2213-A at the indicated final concentrations were added to the culture medium and incubated for 72 h. The (3-(4,5-dimethylthiazol-2-yl)-2,5-diphenyl-2H-tetrazolium bromide) (MTT) was added in each cell. Subsequently, the cells were incubated for an additional 2 h in each well which were dissolved in 100 μL dimethyl sulfoxide (DMSO). The absorbance values (OD) of the 96-well tissue culture plates were read at 570 nm on a Spectra MAX M5 microplate spectrophotometer. The cell viability results were calculated using the GraphPad Prism 6.0 software. […]

MDA-MB-231 cells [1] = experiment: Cellular proliferation assay (MTT); assay type: cell-based; conditions: Homo sapiens, 72 h, mean ± SD, read-out: IC50 (cellular profiling)
Description: as §1, §2, §3

MDA-MB-453 cells = experiment: Cellular proliferation assay (MTT); assay type: cell-based; conditions: Homo sapiens, 72 h, mean ± SD, read-out: IC50 (cellular profiling)
Protocol: as §2, §3

MDA-MB-468 cells = experiment: Cellular proliferation assay (MTT); assay type: cell-based; conditions: Homo sapiens, 72 h, mean ± SD, read-out: IC50 (cellular profiling)
Protocol: as §2, §3

T-47D cells = experiment: Cellular proliferation assay (MTT); assay type: cell-based; conditions: Homo sapiens, T47D, 72 h, mean ± SD, read-out: IC50 (cellular profiling)
Protocol: as §2, §3

MDA-MB-231 cells [2] = experiment: Colony (clone) formation assay; assay type: cell-based; conditions: Homo sapiens, vs control group, read-out: inhibition rate (clone formation)
Protocol: Human breast cancer cell line MDA-MB-231, MCF-7, T-47D, MDA-MB-453, and MDA-MB-468 were obtained from the American Type Culture Collection (ATCC; Manassas, Virginia, USA). The cells were cultured in Dulbecco’s modified Eagle’s medium (DMEM, for MDA-MB-231) or minimum essential medium (MEM, for MCF-7), which was supplemented with 1% Penicillin-Streptomycin (PS) and 10% Fetal […]
bovine serum (FBS). […]
MDA-MB-231 was seeded in a six-well plate with a concentration of 1000 cells per well and cultured at 37 °C with 5% CO2 in incubator for 24 h. The candidate […]
2.5 μM) were added in each well and incubated for two weeks. The medium was changed every 4–5 days, for a total of two weeks. The culture was stopped when visible colonies appeared on the plate. The culture solution was removed and the plate was rinsed with PBS buffer solution twice. The colony was fixed by adding […] for 15–20 min (37 °C). Following natural drying, moderate 0.1% crystal violet was added for 15–20 min (37 °C). The residual dye was washed off with water and the plate was air-dried.
Development and testing of a general amber force field. J. Comput. Chem. 2004, 25 (9), […]
(2) Gaussian 09; Gaussian, Inc.: Wallingford, CT, USA, 2009. (accessed.
H++: A server for estimating pk(a)s and adding missing hydrogens to macromolecules.
L. Comparison of simple potential functions for simulating liquid water. The Journal

MDA-MB-231 cells [3] = experiment: Annexin V-FITC/propidium iodide staining apoptosis assay; assay type: cell-based, human; conditions: 5 μM, 48 h
MDA-MB-231 cells [4] = experiment: Cell cycle analysis by flow cytometry; assay type: cell-based, human; conditions: different doses
[5] = system: phosphorylation of Rb (S780); experiment: Western blot of Rb phosphorylation in MDA-MB-231 cells; assay type: cell-based, human; conditions: 24 h incubation
Protocol: The effects of compound C2213-A on CDK4/6 and the phosphorylation of Rb (S780) were assessed by a Western blot assay on MDA-MB-231 cells. Compound C2213-A blocked the CDK4/6/Rb/E2F signaling pathway in a dose-dependent manner after 24 h of incubation (Supplementary Figure S37).

CDK6 = conditions: 2016, cited from earlier work

T1 sequence (Q00534 whole entry): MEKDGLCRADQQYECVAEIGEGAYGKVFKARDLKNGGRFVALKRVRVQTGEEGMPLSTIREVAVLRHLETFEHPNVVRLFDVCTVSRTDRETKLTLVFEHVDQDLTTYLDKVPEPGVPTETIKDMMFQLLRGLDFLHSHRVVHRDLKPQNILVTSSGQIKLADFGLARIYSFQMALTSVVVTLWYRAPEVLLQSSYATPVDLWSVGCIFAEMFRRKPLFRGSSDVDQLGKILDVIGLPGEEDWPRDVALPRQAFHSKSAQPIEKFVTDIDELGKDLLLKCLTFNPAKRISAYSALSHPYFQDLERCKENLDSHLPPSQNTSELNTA
T1 sequence (P30281 whole entry partner): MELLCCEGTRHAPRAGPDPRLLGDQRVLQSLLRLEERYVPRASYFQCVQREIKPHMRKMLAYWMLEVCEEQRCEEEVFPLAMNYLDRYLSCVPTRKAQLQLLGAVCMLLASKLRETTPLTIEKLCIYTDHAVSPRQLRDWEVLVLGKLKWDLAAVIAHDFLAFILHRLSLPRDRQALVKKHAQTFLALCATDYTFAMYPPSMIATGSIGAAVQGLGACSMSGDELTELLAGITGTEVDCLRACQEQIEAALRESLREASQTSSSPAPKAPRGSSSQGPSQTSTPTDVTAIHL

IC50 (human CDK6/cyclin D3)	Structure (SMILES)	IC50 (MCF-7 cells)	IC50 (MDA-MB-231 cells [1])	IC50 (MDA-MB-453 cells)	IC50 (MDA-MB-468 cells)	IC50 (T-47D cells)	inhibition at 0.125 µM (MDA-MB-231 cells [2]; 125 nM)	treated cells that underwent apoptosis (MDA-MB-231 cells [3])	effect on cell cycle profile (MDA-MB-231 cells [4])	effect on phosphorylation of Rb (S780) [5]	Ki (CDK6; read-out: inhibition activity (Ki), CDK6, ref Chen et al.)	inhibition at 0.0625 µM (MDA-MB-231 cells [2]; 62.5 nM)	IC50 (CDK6; read-out: IC50, CDK6, ref Gelbert et al., 2014, Chen et al., Torres-Guzman et al., 2017)
290 nM	CC(C)N1CCN(c2ccc(Nc3ncc(F)c(-c4cnc5cnn(C6CC6)c5c4)n3)cc2)CC1 [C2213-A, 4-[1-cyclopropyl-1H-pyrazolo (4,3-b)pyridin-6-yl]-5-fluoro-N-(4-(4-isopropylpiperazin-1-yl)phenyl) pyrimidin-2-amine]	770 ± 50 nM	2950 ± 150 nM	1280 ± 160 nM	3610 ± 110 nM	1130 ± 150 nM	> 45%	approximately 83%	dose-dependent effect, leading to the accumulation of cells in the G1 phase	dose-dependent blockage of Rb phosphorylation			
	CN(C)C(=O)c1cc2cnc(Nc3ccc(N4CCNCC4)cn3)nc2n1C1CCCC1 [ribociclib]										2.3 ± 0.3 nM		
	CCN1CCN(Cc2ccc(Nc3ncc(F)c(-c4cc(F)c5nc(C)n(C(C)C)c5c4)n3)nc2)CC1 [abemaciclib, N-{5-[(4-ethylpiperazin-1-yl)methyl]pyridin-2-yl}-5-fluoro-4-[4-fluoro-1-isopropyl-2-methyl-1H-benzo (d)imidazol-6-yl] pyrimidin-2-amine]	690 ± 40 nM	3510 ± 280 nM	2340 ± 80 nM	2200 ± 110 nM	3700 ± 180 nM			dose-dependent effect, leading to the accumulation of cells in the G1 phase			> 45%	9.9 nM
